Results taken from patent US20050014647A1, “Method and composition for determining resistance to an acetohydroxy-acid synthase inhibitor” (priority 2001, published 2005).
Values joined by “and” are separate entries in the source; they are usually repeats but may differ in a detail not shown here. Equal values may be shown once.

Assays:
Type in all cases: cell-based
[1] = test system: AHAS; assay: in vivo AHAS assay, canola leaf discs with external supplement; details: canola, 14 hours; for % of 0/0 / OD 530, Avg. of the treated discs / OD 530, Treated: replicates 1-3; for OD 530, Treated: single treated discs; for % of No Alaninor Pyruvate: Alanine 0 %
Method: The procedure for the preparation of an in vivo AHAS assay is described below:
For the experiments, plants are grown from seed in soil in a greenhouse. Most experiments used wild type and imidazolinone resistant varieties of wheat, canola, rice, sunflower, and maize.
For the assay, a a microtiter plate is set up with 100 μl of one of the following solutions in each well: • a. Solution A: 10 mM phosphate buffer, pH 6; 10% Murashige and Skoog basal mineral salts (according to Murashige, T. and Skoog, F., Physiol. Plant., 15 473-497 (1962)); 500 μM CPCA (cyclopropyldicarboxylic acid); • b. Solution B: Solution A+alanine (or other supplements); • c. Solution C: Solution A+a pyruvate salt (or other supplements).
Plant material is excised from the newest emerging, rapidly growing leaf or stem from the test plant and placed in one of the microtiter plates. Usually, 5 mm leaf discs are cut from the newest emerging leaf. At least 2 discs per plant are cut. One disc is put in a well with Solution A and the other disc in a well with one of the other Solutions B or C (what solution are you using for background?).
After all wells in the microtiter plate contain plant material, the plate is covered with the microtiter plate cover and the plate with material is placed in a chamber with continuous fluorescent lights for 12 to 16 hours. The incubation is stopped by placing the plate in −20° C. freezer. After tissue and solutions freeze, the plate is thawed at room temperature and 25 μL of 5% sulfuric acid are added to each well. After incubation at 60° C. for 15 minutes, 175 μL of a freshly prepared mixture of α-naphthol (2.5%) and creatine (0.25%) in 2 N NaOH are added to each well and the plate is incubated at 60° C. for 15 minutes.
200 μL from each well are transferred to a new plate and OD530 on microtiter plate is readed by a spectrophotometer.

[2] = test system: AHAS; assay: AHAS assay of resistant and non-resistant crops, maize stem slices; parameters: dose or concentration left out as unconfirmed; details: imazamox and CPCA, average of four plants
Method: (§1) For the experiments, plants are grown from seed in soil in a greenhouse. The experiments used wild type and imidazolinone resistant varieties of maize and wheat.
(§2) For the assay, a microtiter plate is set up with […] of one of the following solutions in each well: • Solution A: 10 mM phosphate buffer (pH 4.4), 10% prepared Murashige and Skoog basal mineral salt stock solution, 0.5% (w/v) alanine, 50 mM pyruvate salt, and 0.5 mM CPCA (cyclopropyldicarboxylic acid); • Solution B: Solution A+0.0025 mM imazamox; • Solution C: Solution A without 0.5 mM CPCA
(§3) Plant material is excised from the newest emerging leaf for wheat or rapidly growing stem for maize from the test plant and placed in one of the microtiter plates. Usually, 3 to 5 mm slices are cut from the newest emerging leaf or stem. At least 3 same-length slices per plant are cut. One disc is put in a well with Solution A, one in a well with Solution B, and the last one in a well with Solution C.
(§4) After all wells in the microtiter plate contain plant material, the plate is covered with a plate cover and is placed under continuous fluorescent lights for 14 to 18 hours. The incubation is stopped by placing the plate in a −20° C. freezer. After tissue and solutions freeze, the plate is thawed at room temperature, and […] of 5% sulfuric acid is added to each well. After incubation at 60° C. for 15 minutes, […] of a freshly prepared mixture of α-naphthol (2.5%, w/v) and creatine (0.25%, w/v) in 2 N NaOH are added to each well and the plate is incubated at 60° C. for 15 minutes.
(§5) A 190 μl solution from each well is transferred to a new plate, and OD530 on microtiter plate is readed by a spectrophotometer.
(§6) AHAS activity of each plant is determined by the following formula: (OD530 of well B−OD530 of well C)/(OD530 of well A−OD530 of well C).

[3] = test system: AHAS; assay: AHAS assay of resistant and non-resistant crops, wheat leaf slices; parameters: dose or concentration left out as unconfirmed; details: imazamox and CPCA, average of four plants
Method: as §1, §2, §3, §4, §5, §6

`N.O` [NH4OH, ammonium hydroxide] was tested, and the “% of No NH4 or Pyruvate” value ([1]; NH4 6.25 mM, Pyruvate 0 mM) was 101%, the “% of No NH4 or Pyruvate” value ([1]; NH4 12.5 mM, Pyruvate 0 mM) was 138% and the “% of No NH4 or Pyruvate” value ([1]; NH4 25 mM, Pyruvate 0 mM) was 128%. For the same compound, the “% of No NH4 or Pyruvate” value ([1]; NH4 50 mM, Pyruvate 0 mM) was 142%, the “% of 0/0” value ([1]; NH4OH (50 mM)) was 113% and 111% and 157% and the “OD 530, Avg. of the treated discs” value ([1]; NH4OH (50 mM)) was 0.697 and 0.886 and 1.386. The “OD 530, Treated” value ([1]; NH4OH (50 mM)) was 0.604 and 0.880 and 1.386 and 0.522 and 0.866 and 1.177 and 1.003 and 0.953 and 1.845.
With `COCc1cnc(C2=NC(C)(C(C)C)C(=O)N2)c(C(=O)O)c1` (stereo not shown) [imazamox] the “Relative AHAS activity (%)” value ([2]; Maize variety Garst 8541 IT (Moderate-resistance)) was 45.2%, the “Relative AHAS activity (%)” value ([2]; Maize variety Pioneer 3395 IR (High-resistance)) was 67.3% and the “Relative AHAS activity (%)” value ([2]; Maize variety Pioneer 3514 (Non-resistance)) was 5.8%. For the same compound, the “Relative AHAS activity (%)” value ([3]; Wheat variety CV 9804 (Moderate-resistance)) was 22.4%, the “Relative AHAS activity (%)” value ([3]; Wheat variety Riband (Non-resistance)) was 1.5% and the “Relative AHAS activity (%)” value ([3]; Wheat variety Teal 15A (High-resistance)) was 57.7%.
For `CC(=O)C(=O)O` [Pyruvate, Na-Pyruvate], the “% of No Alaninor Pyruvate” value ([1]; Pyruvate 25 mM) was 110%, the “% of No Alaninor Pyruvate” value ([1]; Pyruvate 50 mM) was 139% and the “% of No NH4 or Pyruvate” value ([1]; NH4 0 mM, Pyruvate 6.25 mM) was 109%. For the same compound, the “% of No NH4 or Pyruvate” value ([1]; NH4 0 mM, Pyruvate 12.5 mM) was 128%, the “% of No NH4 or Pyruvate” value ([1]; NH4 0 mM, Pyruvate 25 mM) was 138% and the “% of No NH4 or Pyruvate” value ([1]; NH4 0 mM, Pyruvate 50 mM) was 175%. The “% of 0/0” value ([1]; Pyruvate (100 mM)) was 134% and 153% and 188%, the “OD 530, Avg. of the treated discs” value ([1]; Pyruvate (100 mM)) was 1.510 and 1.730 and 1.950 and the “OD 530, Treated” value ([1]; Pyruvate (100 mM)) was 1.526 and 1.848 and 1.972 and 1.469 and 1.846 and 2.235 and 1.725 and 1.796 and 2.100.
In the case of `NC(=O)C[C@H](N)C(=O)O` [Asparagine, L-asparagine], the “% of 0/0” value ([1]; Asparagine (100 mM)) is reported as 107% and 141% and 91%, the “OD 530, Avg. of the treated discs” value ([1]; Asparagine (100 mM)) is reported as 1.384 and 0.796 and 1.206 and the “OD 530, Treated” value ([1]; Asparagine (100 mM)) is reported as 1.011 and 0.718 and 1.279 and 1.343 and 0.880 and 1.094 and 1.843 and 0.907 and 1.186.
